*1 amine or outer side, *2 acyl side, *3 side chain or, on linkers, in order; H or OH if unused. Where a SMILES comes first, the peptide text is derived from it. Bridges are numbered along the chain shown (N, C = ends). [ ]: non-standard residue; d: D form. The star is where a group is joined. X1 = CC[C@H](C)[C@@H](N[*:1])[C@@H](O)CC(=O)O[C@H](C(=O)[C@H](C)C(=O)[*:2])C(C)C; NMeY = CN[C@@H](Cc1ccc(O)cc1)C(=O)O; dNMeL = CN[C@H](CC(C)C)C(=O)O; Pyruvoyl = CC(=O)C(=O)*
Legend:
protein synthesis = settings: cited from earlier work
[1] = biological target: EF1A isolated from rabbit reticulocytes; settings: cited from earlier work
Description: (§1) Until now, very few chemical entities have been identified as modulators of eEF1A2. […] Other authors also reported the discovery of several flavonoids as well as phenanthridones (e.g ...

eEF1A-ribosome complex = settings: binding to the eEF1A-ribosome complex; cited from earlier work
Description: as §1

[2] = test system: subcellular and chromatographic fractions of K-562 cell lysate; experiment: Binding of [14C]-plitidepsin to K-562 lysate fractions; settings: 500 nM [14C]-plitidepsin with or without 10 μM unlabeled plitidepsin, 1 h, room temperature, subcellular fractions
Method: Figure 4 Identification of the plitidepsin-binding protein in a K-562 cells lysate. […] In the horizontal axis “P” and “S” mean “pellet” and “supernatant”, respectively, with the figure aside denoting the relative centrifugal force (in thousands of g) used to obtain such fraction. Data (in dpm per mg of protein) represent the mean of three independent samples with error bars showing S.D. * means p < 0.05. (C) Anion-exchange chromatography on DEAE, flow rate 5 mL/min. (D) Cation-exchange chromatography on SP, flow rate 2.5 mL/min. (E) Size exclusion chromatography on Superdex 200, flow rate 4 mL/min. Representative fractions (4-mL) from each portion of the eluates were analyzed for their binding to [^14C]-plitidepsin in the presence (grey bars, non-specific binding) or absence (black bars, total binding) of a 20-fold excess of unlabeled drug. Only fractions showing significant specific binding to the radioligand were pooled and progressed to the next chromatographic step. In all cases absorbance is expressed in mAU and conductivity in mS/cm.
The rest of the peptides detected in this material corresponded to fragments whose sequences are common to both isoforms, thus discarding the presence of any other protein.
After 1 h incubation at room temperature 400 μL of each tube were withdrawn and processed as described above.

[3] = biological target: eEF1A1 purified from rabbit liver (Oryctolagus cuniculus, UniProt P68105); settings: saturation binding, [14C]-plitidepsin, 1 h, room temperature, triplicate, Swillens fit (Supplementary Figure 4)
Chain of eEF1A1 purified from rabbit liver (P68105 whole entry, canonical isoform): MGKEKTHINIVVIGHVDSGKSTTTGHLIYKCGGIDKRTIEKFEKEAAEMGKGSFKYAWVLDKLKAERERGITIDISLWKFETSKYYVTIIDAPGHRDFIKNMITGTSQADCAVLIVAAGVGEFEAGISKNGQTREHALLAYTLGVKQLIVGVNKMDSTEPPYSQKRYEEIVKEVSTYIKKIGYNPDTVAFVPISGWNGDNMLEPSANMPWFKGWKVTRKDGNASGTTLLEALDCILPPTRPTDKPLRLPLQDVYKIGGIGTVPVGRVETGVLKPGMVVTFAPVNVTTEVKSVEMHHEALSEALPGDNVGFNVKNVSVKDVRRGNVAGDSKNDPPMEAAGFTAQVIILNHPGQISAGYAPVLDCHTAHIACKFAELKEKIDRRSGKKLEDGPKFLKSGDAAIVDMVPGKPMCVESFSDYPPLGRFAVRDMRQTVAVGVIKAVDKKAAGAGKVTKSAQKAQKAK
Method: All samples in binding assays were tested in triplicate. […] After 1 h incubation at room temperature, 450 μL were withdrawn, filtered through GF/C filters (Millipore, Bedford, CA) and washed three times with the same buffer used for the incubation. Filters were then removed, dried and their radioactivity was finally counted as a measurement of total (specific and non-specific) bound drug. […] Scintillation counting was transformed into concentration values considering the specific activity of the radioligand and the sample volume. The concentration of bound radioligand was related to the total amount of radioligand in the sample using the expression derived by Swillens[12] to account for ligand depletion when the concentration of protein was similar to that of radioligand:
was purified from rabbit liver as described in ( 48) . Protein and radioligand wer e
incubated for 1 h at room temperature and samples were processed as described in the

both eEF1A isoforms = settings: cited from earlier work
Description: as §1

**Q.** For didemnin B, which protein synthesis inhibition (protein synthesis) is on record?
**A.** Its protein synthesis inhibition is “only at μM concentrations”.

**Q.** And the Kd ([1]; binding to EF1A)?
**A.** The Kd was 200 µM.

**Q.** And the “interaction with eEF1A” value ([1]; isoform not specified)?
**A.** The value was “interact with eEF1A”.

**Q.** And the Kd (eEF1A-ribosome complex)?
**A.** The Kd was 4 µM.

**Q.** Which binding to pellets ([2]; pellets) does the source give for `CC[C@H](C)[C@H]1NC(=O)[C@@H](NC(=O)[C@@H](CC(C)C)N(C)C(=O)[C@@H]2CCCN2C(=O)C(C)=O)[C@@H](C)OC(=O)[C@H](Cc2ccc(OC)cc2)N(C)C(=O)[C@@H]2CCCN2C(=O)[C@H](CC(C)C)NC(=O)[C@@H](C)C(=O)[C@H](C(C)C)OC(=O)C[C@@H]1O` [[^14C]-plitidepsin] (Pyruvoyl-P[dNMeL]T[X1]LP[NMeY](Me); ester 3-C (inferred)) here?
**A.** The binding to pellets was “non-specifically”.

**Q.** What about the “binding to soluble fractions” value ([2]; soluble) of the same compound?
**A.** The value was “retained by the soluble fractions”.

**Q.** And the Kd [3]?
**A.** Its Kd is 0.183 ± 0.032 µM.

**Q.** For `O=C1N[C@@H]2C(=C[C@H](O)[C@@H](O)[C@H]2O)c2cc3c(c(O)c21)OCO3` [narciclasine], which “binding to eEF1A isoforms” value (both eEF1A isoforms) is on record?
**A.** The value was “selectively bind to both eEF1A isoforms”.

**Q.** Which “binding to eEF1A isoforms” value (both eEF1A isoforms) does the source give for `O=C1N[C@H]2[C@H](O)[C@H](O)[C@@H](O)[C@H](O)[C@@H]2c2cc3c(c(O)c21)OCO3` [pancratistatine] here?
**A.** Its value is “selectively bind to both eEF1A isoforms”.

Source: publication PMC5054363 (Scientific Reports, 2016)
